Laboratory results: patent US12004511B2, “Method of controlling weeds in warm season turfgrass” (SYNGENTA PARTICIPATIONS AG, priority 2017, dated 2024)

Legend:
[1] = tested on: tropical signalgrass (Urochloa subquadripara); assay: Tropical signalgrass control in Bermudagrass plots; assay type: in vivo; conditions: 28 days after application
Text: Applications of pinoxaden, and pinoxaden plus cloquintocet were applied to various Bermudagrass plots with tropical […] present between August 11 and August 13. The plots were again evaluated 28 days following the application. The following percent weed controls were observed.

[2] = tested on: dallisgrass (Paspalum dilatatum); assay: Dallisgrass control in bermudagrass; assay type: in vivo; conditions: two applications, 28 days after the first application
Text: Applications initiated on Oct. 1, 2014.
initiated in AL for dallisgrass control in bermudagrass on Oct. 28, 2013. Two applications were applied. Percent dallisgrass control was taken 28 days after the first application.

Compound: CCc1cc(C)cc(CC)c1-c1c(OC(=O)C(C)(C)C)n2n(c1=O)CCOCC2 [Pinoxaden, 8-(2,6-Diethyl-4-methylphenyl)-7-oxo-1,2,4,5-tetrahydro-7H-pyrazolo[1,2-d][1,4,5]oxadiazepin-9-yl-2,2-dimethylpropanoat]
- % Control (28 Days AIA) ([1]; 70 g active/ha): 79.5%
- % Control (28 Days AIA) ([1]; 140 g active/ha): 89.7%
- % Control (28 Days AIA) ([2]; 45 g active/ha): 82%
- % Control (28 Days AIA) ([2]; 90 g active/ha): 85%
